From US10399931B2, “Octahydroanthracene compound, preparation method and application thereof” (SHANDONG XINHUA PHARMACEUTICAL CO., LTD., priority 2016, dated 2019)
“Also recorded” adds a separate entry of the source.

How the values were obtained:
[1] = tested on: APP/PS1 double transgenic AD model mice; assay: Behavioral experiments (new object discrimination, Y-maze, Morris water maze, nesting, social interaction); format: in vivo; conditions: 14 days or 3 months
Method: The drugs were administered three days after the adaptive feeding. Peanut oil was used as the solvent. The drug was intragastric administered once a day for 15 days. On the 6th to 9th day after the administration, the new object identification test was performed. On the 10th day, the Y-maze test was performed. On the 11th to 15th day, the Morris water maze test was performed to determine the improvement of learning and memory. The administration of the drugs was continued during the behavioral experiment until the animals were sacrificed (16th day). The experimental device is a wooden square open field with a size of 50 cm×50 cm×15 cm. […] The mouse was placed back to the objects at equal distance from the two identical objects on the other side of the experimental device, and the time (tA1, tA2) used to explore the two objects within 5 minutes was recorded. After 1 h, A2 was replaced with a new object (B) and the mouse was placed in the test site again, the time (tA1, tB) used to explore the two objects was recorded. After 24 h, the object B was replaced with a new object (C), and the mouse was placed in the test site again, the time (tA1, tC) used to explore the two objects was recorded. […] The preferential index and the discrimination index of the new objects for each group of the experimental mice were calculated separately. […]

[2] = tested on: APP/PS1 double transgenic AD model mice; assay: β-amyloid deposition in cerebral cortex and hippocampus of APP/PS1 mice; format: in vivo
Method: The drugs were administered three days after the adaptive feeding. Peanut oil was used as the solvent. […] On the 6th to 9th day after the administration, the new object identification test was performed. On the 10th day, the Y-maze test was performed. On the 11th to 15th day, the Morris water maze test was performed to determine the improvement of learning and memory. The administration of the drugs was continued during the behavioral experiment until the animals were sacrificed (16th day).
After the behavioral experiment, the mice were anesthetized with an intraperitoneal injection of 3.5% chloral hydrate 3.5% (about […] for each mouse). Then the back of the mouse was fixed on the operating table and the chest was open to expose the heart. A perfusion needle was inserted into the left ventricle from the apex of the heart, while the right atrial appendage cut a small opening. First, perfusion was performed with about 200 ml saline. When the tail of the mouse was cut to find no blood, 300 ml 4% paraformaldehyde buffer (0.1 mol/L) at 4° C. was used to perfuse until the body of the mouse was stiff. The mouse was then decapitated, and the whole brain was obtained and fixed in 4% paraformaldehyde at 4° C. After 24 h, the brain was embedded in conventional paraffin and coronally sectioned to obtain the tissue sections with a thickness of 5 μm for immunohistochemical staining. […]

## CC1(C)CCC(C)(C)c2c1cc1c(c2NC(=O)c2ccc(NC(=O)NCCN)cc2)C(C)(C)CCC1(C)C [OAB-14, 1-(2-amino) ethyl-3-{4-[(1,1,4,4,5,5,8,8-octamethyl-1,2,3,4,5,6,7,8-octahydro-9-anthryl)carbamoyl]phenyl} urea]
[1]; 50, 100 and 200 mg/kg intragastric, 8-month-old APP/PS1 mice
  Learning and memory disorders in new object discrimination, Y-maze, Morris water maze, nesting and social interaction tests: dose-dependently improve
[1]; high-dose group
  Behavioral effect of the high-dose group compared with donepezil and blank groups: significantly stronger than that of the donepezil group and completely restored to the level of the blank control group; also recorded: significantly stronger than the donepezil group and completely recovered to the level of the blank group
[2]; 200 mg/kg, continuous intragastric administration 14 days, 8-month-old APP/PS1 mice
  Reduction of the deposition of β-amyloid protein in cerebral cortex and hippocampus: 67.4%
[2]; dose range 50-200 mg/kg, intragastric, 14 days
  Dose-effect relationship of the reduction of β-amyloid deposition: good dose-effect relationship
